Laboratory results as given in paper PMC8219027, “A small-molecule inhibitor of the BRCA2-RAD51 interaction modulates RAD51 assembly and potentiates DNA damage-induced cell death” (Cell Chemical Biology, 2021).

Legend:
HCT116 cells = experiment: SRB growth inhibition assay; assay type: cell-based, human; conditions: for IC50 / GI50: Homo sapiens; for IC50: HCT-116, 96 h, Figure 6D (cell line not given); for GI50: HCT-116, geometrical mean, n = 18
Procedure: (§1) Adherent cell lines (HCT116 and A549 cells) were seeded into flat-bottomed tissue culture 96-well plates in a volume of 150 μL of growth medium. HCT116 cells were seeded at 750 cells per well and A549 cells were seeded at 1000 cells per well. After 24 hours, compounds dissolved in DMSO were diluted in growth medium and were added to cells such that the final DMSO concentration was 1% (v/v) and the final volume in the well was 200 μL. Cells were then incubated in the presence of compound for 96 hours before fixation.
(§2) Medium was removed from cells and 100 μL of cold 1% (v/v) trichloroacetic acid was added for 30 minutes at 4 degrees. The plates were washed three times in tap water and left to dry at room temperature. The fixed cells were stained in a 0.057% sulphorodamine B/1% acetic acid solution (w/v) and incubated at room temperature with agitation for 30 minutes after which the dye was removed and the plates washed in 1% (v/v) acetic acid and left to dry. The dye was then solubilised in 10 mM Tris solution (pH8) and incubated for 30 minutes under agitation. The plates were then read on a PHERAstar plus plate reader (BMG Labtech) using the fluorescence intensity module (540-590 nm). Growth inhibition was calculated relative to DMSO controls and GI50 values were calculated using Graphpad Prism.

[1] = tested on: HCT116 cells (BRCA2 wild-type); experiment: SRB growth inhibition assay, combination of CAM833 and PARP1 inhibitor AZD2461; assay type: cell-based, human; conditions: 96 h
Procedure: as §1, §2
For the PARP inhibitor experiments, the SRB method was used as described above to measure growth inhibition with the exception that cells were seeded into 150 μl medium and then a combination of either 25 μl of CAM833, AZD2461 (SelleckChem; #S7029) or DMSO was added to give a total volume of 200 ul in the well.

CYP450 2C19 = molecular target: T1, CYP450 2C19 (Homo sapiens, UniProt P33261); experiment: CYP450 inhibition; assay type: in vitro ADME
T1 construct: Cyprotex (contract data)
T1 sequence (P33261 whole entry): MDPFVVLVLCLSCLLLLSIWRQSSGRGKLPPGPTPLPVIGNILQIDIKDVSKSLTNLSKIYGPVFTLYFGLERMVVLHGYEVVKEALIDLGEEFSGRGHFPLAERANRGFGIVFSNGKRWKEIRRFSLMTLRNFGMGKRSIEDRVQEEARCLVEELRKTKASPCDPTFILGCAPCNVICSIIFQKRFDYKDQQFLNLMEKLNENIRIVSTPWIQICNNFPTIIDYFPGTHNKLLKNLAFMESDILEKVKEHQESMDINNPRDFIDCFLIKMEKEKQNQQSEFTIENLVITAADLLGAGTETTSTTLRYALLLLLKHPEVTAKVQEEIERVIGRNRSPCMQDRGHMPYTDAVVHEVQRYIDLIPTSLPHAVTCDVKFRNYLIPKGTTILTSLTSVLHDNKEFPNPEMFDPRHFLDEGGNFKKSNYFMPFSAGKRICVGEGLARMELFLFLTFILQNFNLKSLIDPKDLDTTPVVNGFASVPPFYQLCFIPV

HUVEC = experiment: cells; conditions: Homo sapiens, read-out: Absolute EC50, growth inhibition
Mia-pa-ca2 = experiment: cells; conditions: Homo sapiens, MIA PaCa-2, read-out: Absolute EC50, growth inhibition
OVCAR3 = experiment: cells; conditions: Homo sapiens, OVCAR-3, read-out: Absolute EC50, growth inhibition
U20S = experiment: cells; conditions: Homo sapiens, read-out: Absolute EC50, growth inhibition
BT549 = experiment: cells; conditions: Homo sapiens, BT-549, read-out: Absolute EC50, growth inhibition
HCT116 = experiment: cells; conditions: Homo sapiens, HCT-116, read-out: Absolute EC50, growth inhibition
BT20 = experiment: cells; conditions: Homo sapiens, BT-20, read-out: Absolute EC50, growth inhibition
RT112/84 = experiment: cells; conditions: Homo sapiens, RT112/84, read-out: Absolute EC50, growth inhibition
T.Tn = experiment: cells; conditions: Homo sapiens, read-out: Absolute EC50, growth inhibition
U118MG = experiment: cells; conditions: Homo sapiens, U-118-MG, read-out: Absolute EC50, growth inhibition
SK-OV-3 = experiment: cells; conditions: Homo sapiens, SK-OV-3, read-out: Absolute EC50, growth inhibition
U87 = experiment: cells; conditions: Homo sapiens, U-87 MG, read-out: Absolute EC50, growth inhibition
Calu3 = experiment: cells; conditions: Homo sapiens, Calu-3, read-out: Absolute EC50, growth inhibition
Raji = experiment: cells; conditions: Homo sapiens, read-out: Absolute EC50, growth inhibition
A2780 = experiment: cells; conditions: Homo sapiens, A2780, read-out: Absolute EC50, growth inhibition
Mouse oral screen = conditions: male, CD-1, mouse, in vivo, 50 mg/kg
[2] = Microsomal intrinsic clearance; conditions: rat, rat microsomes

SMILES: COc1ccc([C@H](C)NC(=O)[C@@H]2C[C@@H](O)CN2C(=O)CNC(=O)c2ccc3cc(F)ccc3n2)c(Cl)c1 [CAM833, N-(2-((2S,4R)-2-(((S)-1-(2-chloro-4-methoxyphenyl)ethyl)carbamoyl)-4-hydroxypyrrolidin-1-yl)-2-oxoethyl)-6-fluoroquinoline-2-carboxamide]
- GI50 with 3 Gy IR lower than GI50 for compound alone (HCT116 cells; HCT116): more than 2 fold
- IC50 (HCT116 cells; 0 Gy IR, SRB 96 h): 63.5 µM
- IC50 (HCT116 cells; 1 Gy IR, SRB 96 h): 30.4 µM
- IC50 (HCT116 cells; 2 Gy IR, SRB 96 h): 13 µM
- IC50 (HCT116 cells; 3 Gy IR, SRB 96 h): 11.8 µM
- GI50 (HCT116 cells; HCT116, CAM833 alone, 96 h exposure): 38 µM
- GI50 (HCT116 cells; HCT116, combined with 3 Gy IR): 14 µM
- effect of combination with increasing doses of IR on growth suppression (in words) (HCT116 cells; fixed 10 μM dose, 0 to 3 Gy IR, SRB 96 h): potentiates
- growth inhibition by combination with AZD2461 (in words) ([1]; HCT116, BRCA2 wild-type): potentiated the growth-suppressive effects of PARP1 inhibition
- growth inhibition by CAM833 alone (in words) ([1]; HCT116, fixed dose 10 μM or 20 μM): little effect
- IC50 (CYP450 2C19): > 25 µM
- EC50 (HUVEC): 133 µM
- EC50 (Mia-pa-ca2): 68.6 µM
- EC50 (OVCAR3): 53.6 µM
- EC50 (U20S): 40.5 µM
- EC50 (BT549): 73.8 µM
- EC50 (HCT116): 63.5 µM
- EC50 (BT20): 61.9 µM
- EC50 (RT112/84): 70.6 µM
- EC50 (T.Tn): 55.8 µM
- EC50 (U118MG): 90.3 µM
- EC50 (SK-OV-3): 105 µM
- EC50 (U87): 109 µM
- EC50 (Calu3): 83.3 µM
- EC50 (Raji): 95.6 µM
- EC50 (A2780): 46.5 µM
- Cmax (Mouse oral screen): 8320 ng/mL
- bioavailability (Mouse oral screen): 44%
- half-life [2]: 47.9 min
- microsomal CLint [2]: 28.9 ± 4.16 µL/min/mg
